Results from patent publication US12188040B2, “Method for enhancing gene expression using AAV vector” (priority 2018, dated 2025).
“And” between values parts separate entries of the source, which are not always exact repeats. Equal entries are not always repeated. Where two headings read alike, the source gives them in different places.

Legend:
HEK293 cells [1] = test system: HEK293 cells
Experimental: As the first procedure, 4 methods of the addition were carried out, including adding sucrose immediately (5 minutes or less) after the administration of the AAV vector, and the administration of the AAV vector immediately (5 minutes or less) after, 10 minutes after or 1 hour after adding sucrose to cells.
In the same manner as the above-described procedure, the GFP expression level was measured 3 days later.
In the same manner as the above-described procedures, the GFP expression level was measured 3 days later.
AAV3B-CMV-AcGFP was mixed in advance with sucrose at each of various concentrations, and the mixture was allowed to stand at room temperature for 1 hour followed by administration to cells. […] In order to prevent cell damage due to a buffer at the time of dilution of sucrose, medium replacement was carried out using a sucrose solution having the same concentration that was prepared by the medium 3 hours after the administration.

HepG2 cells [2] = assay: GFP expression in HepG2 cells infected with AAV3B-CMV-AcGFP in the presence of sucrose; conditions: Exp 3, AAV3B-CMV-AcGFP 5×10^8 vg/well, 3 days
Experimental: (§1) Three types of AAV vectors (AAV3B, yf2AAV9 and AAVGT4) were used.
(§2) To the culture cells of (b) above, 6×10^7 to 5×10^8 vg/well of AAV3B-CMV-AcGFP expressing GFP described in Item (a) above was added, or 2×10^9 vg/well of yf2AAV9-CMV-AcGFP was added, and then the cells were cultured for 3 to 6 days.
(§3) The fluorescence intensity of GFP was measured using a plate reader (BioTek Japan) and comparison thereof was made. Further, the images of typical view fields were taken using the fluorescence microscope (Olympus IX83).
(§4) On a 96 well Optical bottom plate, 5×10^4 cells/well of HepG2 cells were seeded, and 5×10^8 vg/well of AAVGT4-CMV-AcGFP or 5×10^8 vg/well of AAV3B-CMV-AcGFP was added to the medium on the next day. […] To a sucrose (−) control, the medium in the same amount as that of the sucrose solution was added. After cell cultivation for 3 days under 5% CO2 at 37° C. in an incubator, the fluorescence intensity of GFP was measured using the plate reader and comparison thereof was made.

HepG2 cells [3] = assay: GFP expression in HepG2 cells infected with AAVGT4-CMV-AcGFP in the presence of sucrose; conditions: Exp 3, AAVGT4-CMV-AcGFP 5×10^8 vg/well, 3 days
Experimental: as §1, §2, §3, §4

HEK293 cells [4] = assay: GFP expression in HEK293 cells infected with yf2AAV9-CMV-AcGFP in the presence of sucrose; conditions: Exp 1, yf2AAV9-CMV-AcGFP 2×10^9 vg/well, 3 days
Experimental: as §2, §3
On a 96 well Optical bottom plate (ThermoFisher), 5×10^4 cells/well of HEK293 cells were seeded, and the next day, either 2×10^8 vg/well of AAV3B-CMV-AcGFP or 2×10^9 vg/well of yf2AAV9-CMV-AcGFP was added thereto. […] To a sucrose (−) control, the same amount of the medium as that of the sucrose solution was added. After cell cultivation for 3 days under 5% CO2 at 37° C. in an incubator, the fluorescence intensity of GFP was measured using the plate reader (BioTek Japan) and comparison thereof was made (FIG. 1A). Further, the images of typical view fields were taken using the fluorescence microscope (Olympus IX83) (FIG. 1B).

[5] = Exp 2, AAV3B 6×10^7 vg/well, iso-osmotic additives: sucrose 125.0, glucose 132.3, mannitol 132.3, NaCl 71.5 mM, 3 days
[6] = Exp 6, sucrose 187 mM, data not shown

Structure (SMILES): OC[C@H]1O[C@@](CO)(O[C@H]2O[C@H](CO)[C@@H](O)[C@H](O)[C@H]2O)[C@@H](O)[C@@H]1O [Sucrose, sucrose]
- GFP fluorescence intensity (HEK293 cells [1]; Exp 1, AAV3B-CMV-AcGFP 2×10^8 vg/well, sucrose 125 mM final, 3 days): 9257.45
- (+)/(−) GFP expression increase (HEK293 cells [1]; Exp 1, AAV3B-CMV-AcGFP 2×10^8 vg/well, sucrose 125 mM vs no sucrose, 3 days): 15.4 times
- GFP intensity (HEK293 cells [1]; [5]): 1844.8
- Relativeness (vs No Additive) (HEK293 cells [1]; [5]): 11 times and 11.2 times
- Fluorescence Intensity (HEK293 cells [1]; Exp 4A, AAV3B 1×10^8 vg/well, AAV 10 min after sucrose 125 mM, 3 days): 2580.3
- Fluorescence Intensity (HEK293 cells [1]; Exp 4A, AAV3B 1×10^8 vg/well, AAV 1 hr after sucrose 125 mM, 3 days): 3047
- Fluorescence Intensity (HEK293 cells [1]; Exp 4A, AAV3B 1×10^8 vg/well, AAV immediately after sucrose 125 mM, 3 days): 2356.2
- Fluorescence Intensity (HEK293 cells [1]; Exp 4A, AAV3B 1×10^8 vg/well, sucrose 125 mM added immediately after AAV, 3 days): 2500.8
- Relativeness (vs Sucrose(−)) (HEK293 cells [1]; Exp 4A, AAV 10 min after sucrose 125 mM, 3 days): 10.5
- Relativeness (vs Sucrose(−)) (HEK293 cells [1]; Exp 4A, AAV 1 hr after sucrose 125 mM, 3 days): 12.4
- Relativeness (vs Sucrose(−)) (HEK293 cells [1]; Exp 4A, AAV immediately after sucrose 125 mM, 3 days): 9.6
- Relativeness (vs Sucrose(−)) (HEK293 cells [1]; Exp 4A, sucrose 125 mM added immediately after AAV, 3 days): 10.2
- Increase of expression (HEK293 cells [1]; Exp 4A, sucrose 125 mM, any of the adding methods, 3 days): about 10 times
- Fluorescence Intensity (HEK293 cells [1]; Exp 4B, AAV3B 1×10^8 vg/well premixed with sucrose (125 mM final), administered 1 hr after mixing, 3 days): 3049.8
- Fluorescence Intensity (HEK293 cells [1]; Exp 4B, AAV3B 1×10^8 vg/well premixed with sucrose (125 mM final), administered immediately after mixing, 3 days): 3002.5
- Relativeness (vs (−) => (−)) (HEK293 cells [1]; Exp 4C, (+) => (+): sucrose from immediately after AAV, 3 days): 4.9 times
- Relativeness (vs (−) => (−)) (HEK293 cells [1]; Exp 4C, (−) => (+): sucrose added 3 hours later, 3 days): 2.8 times
- Fluorescence Intensity (HEK293 cells [1]; Exp 4C, AAV3B 1×10^8 vg/well, (+) => (+): sucrose 125 mM from immediately after AAV, 3 days): 534.5
- Fluorescence Intensity (HEK293 cells [1]; Exp 4C, AAV3B 1×10^8 vg/well, (−) => (+): sucrose 125 mM only from medium replacement 3 h after AAV, 3 days): 309.8
- Optimum concentration for expression enhancement (HEK293 cells [1]; Exp 6, after 3 days): 150 mM
- Fluorescence Intensity (HEK293 cells [1]; Exp 6, sucrose 80 mM, AAV3B 1×10^8 vg/well premixed 1 h, 3 days): 1026.0
- Relativeness (vs 0 mM) (HEK293 cells [1]; Exp 6, sucrose 90 mM, 3 days): 6.4
- Fluorescence Intensity (HEK293 cells [1]; Exp 6, sucrose 90 mM, AAV3B 1×10^8 vg/well premixed 1 h, 3 days): 1230.5
- Relativeness (vs 0 mM) (HEK293 cells [1]; Exp 6, sucrose 100 mM, 3 days): 8.1
- Fluorescence Intensity (HEK293 cells [1]; Exp 6, sucrose 100 mM, AAV3B 1×10^8 vg/well premixed 1 h, 3 days): 1568.3
- Relativeness (vs 0 mM) (HEK293 cells [1]; Exp 6, sucrose 105 mM, 3 days): 9.2
- Fluorescence Intensity (HEK293 cells [1]; Exp 6, sucrose 105 mM, AAV3B 1×10^8 vg/well premixed 1 h, 3 days): 1769.3
- Relativeness (vs 0 mM) (HEK293 cells [1]; Exp 6, sucrose 110 mM, 3 days): 10.1
- Fluorescence Intensity (HEK293 cells [1]; Exp 6, sucrose 110 mM, AAV3B 1×10^8 vg/well premixed 1 h, 3 days): 1952.3
- Relativeness (vs 0 mM) (HEK293 cells [1]; Exp 6, sucrose 115 mM, 3 days): 12.2
- Fluorescence Intensity (HEK293 cells [1]; Exp 6, sucrose 115 mM, AAV3B 1×10^8 vg/well premixed 1 h, 3 days): 2351.3
- Relativeness (vs 0 mM) (HEK293 cells [1]; Exp 6, sucrose 120 mM, 3 days): 15.3
- Fluorescence Intensity (HEK293 cells [1]; Exp 6, sucrose 120 mM, AAV3B 1×10^8 vg/well premixed 1 h, 3 days): 2941.0
- Relativeness (vs 0 mM) (HEK293 cells [1]; Exp 6, sucrose 125 mM, 3 days): 18.8
- Fluorescence Intensity (HEK293 cells [1]; Exp 6, sucrose 125 mM, AAV3B 1×10^8 vg/well premixed 1 h, 3 days): 3626.8
- Relativeness (vs 0 mM) (HEK293 cells [1]; Exp 6, sucrose 130 mM, 3 days): 21.1
- Fluorescence Intensity (HEK293 cells [1]; Exp 6, sucrose 130 mM, AAV3B 1×10^8 vg/well premixed 1 h, 3 days): 4069.0
- Relativeness (vs 0 mM) (HEK293 cells [1]; Exp 6, sucrose 135 mM, 3 days): 25.0
- Fluorescence Intensity (HEK293 cells [1]; Exp 6, sucrose 135 mM, AAV3B 1×10^8 vg/well premixed 1 h, 3 days): 4813.3
- Relativeness (vs 0 mM) (HEK293 cells [1]; Exp 6, sucrose 140 mM, 3 days): 29.2
- Fluorescence Intensity (HEK293 cells [1]; Exp 6, sucrose 140 mM, AAV3B 1×10^8 vg/well premixed 1 h, 3 days): 5620.5
- Fluorescence Intensity (HEK293 cells [1]; Exp 6, sucrose 145 mM, AAV3B 1×10^8 vg/well premixed 1 h, 3 days): 5763.8
- Fluorescence Intensity (HEK293 cells [1]; Exp 6, sucrose 150 mM, AAV3B 1×10^8 vg/well premixed 1 h, 3 days): 6411.8
- Fluorescence Intensity (HEK293 cells [1]; Exp 6, sucrose 160 mM, AAV3B 1×10^8 vg/well premixed 1 h, 3 days): 5922.5
- Cell damage (HEK293 cells [1]; [6]): damaged and detached
- Decrease of GFP intensity (HEK293 cells [1]; [6]): about 20%
- Fluorescence Intensity (HEK293 cells [1]; Exp 8, disaccharide 100 mM in medium, AAV3B 1×10^8 vg/well, Day 3): 1312.7
- Relativeness (vs No Sugar) (HEK293 cells [1]; Exp 8, disaccharide 100 mM, Day 3): 2.2
- Fluorescence Intensity (HEK293 cells [1]; Exp 8, disaccharide 125 mM in medium, AAV3B 1×10^8 vg/well, Day 3): 1760.5
- Relativeness (vs No Sugar) (HEK293 cells [1]; Exp 8, disaccharide 125 mM, Day 3): 2.9
- Fluorescence Intensity (HEK293 cells [1]; Exp 8, disaccharide 150 mM in medium, AAV3B 1×10^8 vg/well, Day 3): 2979.5
- Fluorescence Intensity (HEK293 cells [1]; Exp 8, disaccharide 150 mM, AAV3B 1×10^8 vg/well, Day 1): 434.5
- Fluorescence Intensity (HEK293 cells [1]; Exp 8, disaccharide 150 mM, AAV3B 1×10^8 vg/well, Day 2): 1657.3
- Fluorescence Intensity (HEK293 cells [1]; Exp 8, disaccharide 150 mM, AAV3B 1×10^8 vg/well, Day 6): 7908.0
- Relativeness (vs No Sugar) (HEK293 cells [1]; Exp 8, disaccharide 150 mM, Day 3): 4.9
- (+)/(−) GFP expression increase (HepG2 cells [2]; sucrose 125 mM vs none): 16.1 times
- GFP fluorescence intensity (HepG2 cells [2]; sucrose 125 mM): 970.8
- (+)/(−) GFP expression increase (HepG2 cells [3]; sucrose 125 mM vs none): 19.1 times
- GFP fluorescence intensity (HepG2 cells [3]; sucrose 125 mM): 579.8
- GFP fluorescence intensity (HEK293 cells [4]; sucrose 125 mM final): 321.4
- (+)/(−) GFP expression increase (HEK293 cells [4]; sucrose 125 mM vs no sucrose): 19.6 times
